Patent US20240226034A1, “Use of Terpenoids and Salicylates as Anesthetics and Analgesics” (THE REGENTS OF THE UNIVERSITY OF CALIFORNIA, priority 2021, published 2024)

What was measured:
[1] = biological target: T1, NMDA receptors (rat NR1 GRIN1 and rat NR2a GRIN2A subunits) (Rattus norvegicus, UniProt P35439+Q00959); assay: Two-electrode voltage clamp of NMDA receptors expressed in Xenopus oocytes; type: cell-based; details: for inhibition of NMDA receptors: at the mean plasma concentration during IV infusion anesthesia in rats; for Hill coefficient, NMDA receptor inhibition: dose-response model; for effect on NMDA receptor currents: dose-response, oocytes
T1 construct: expressed in transfected cells; host or cells: Xenopus laevis oocytes (intracytoplasmic RNA injection)
T1 sequence (Q00959 20-1464 limits assumed, other chains not shown): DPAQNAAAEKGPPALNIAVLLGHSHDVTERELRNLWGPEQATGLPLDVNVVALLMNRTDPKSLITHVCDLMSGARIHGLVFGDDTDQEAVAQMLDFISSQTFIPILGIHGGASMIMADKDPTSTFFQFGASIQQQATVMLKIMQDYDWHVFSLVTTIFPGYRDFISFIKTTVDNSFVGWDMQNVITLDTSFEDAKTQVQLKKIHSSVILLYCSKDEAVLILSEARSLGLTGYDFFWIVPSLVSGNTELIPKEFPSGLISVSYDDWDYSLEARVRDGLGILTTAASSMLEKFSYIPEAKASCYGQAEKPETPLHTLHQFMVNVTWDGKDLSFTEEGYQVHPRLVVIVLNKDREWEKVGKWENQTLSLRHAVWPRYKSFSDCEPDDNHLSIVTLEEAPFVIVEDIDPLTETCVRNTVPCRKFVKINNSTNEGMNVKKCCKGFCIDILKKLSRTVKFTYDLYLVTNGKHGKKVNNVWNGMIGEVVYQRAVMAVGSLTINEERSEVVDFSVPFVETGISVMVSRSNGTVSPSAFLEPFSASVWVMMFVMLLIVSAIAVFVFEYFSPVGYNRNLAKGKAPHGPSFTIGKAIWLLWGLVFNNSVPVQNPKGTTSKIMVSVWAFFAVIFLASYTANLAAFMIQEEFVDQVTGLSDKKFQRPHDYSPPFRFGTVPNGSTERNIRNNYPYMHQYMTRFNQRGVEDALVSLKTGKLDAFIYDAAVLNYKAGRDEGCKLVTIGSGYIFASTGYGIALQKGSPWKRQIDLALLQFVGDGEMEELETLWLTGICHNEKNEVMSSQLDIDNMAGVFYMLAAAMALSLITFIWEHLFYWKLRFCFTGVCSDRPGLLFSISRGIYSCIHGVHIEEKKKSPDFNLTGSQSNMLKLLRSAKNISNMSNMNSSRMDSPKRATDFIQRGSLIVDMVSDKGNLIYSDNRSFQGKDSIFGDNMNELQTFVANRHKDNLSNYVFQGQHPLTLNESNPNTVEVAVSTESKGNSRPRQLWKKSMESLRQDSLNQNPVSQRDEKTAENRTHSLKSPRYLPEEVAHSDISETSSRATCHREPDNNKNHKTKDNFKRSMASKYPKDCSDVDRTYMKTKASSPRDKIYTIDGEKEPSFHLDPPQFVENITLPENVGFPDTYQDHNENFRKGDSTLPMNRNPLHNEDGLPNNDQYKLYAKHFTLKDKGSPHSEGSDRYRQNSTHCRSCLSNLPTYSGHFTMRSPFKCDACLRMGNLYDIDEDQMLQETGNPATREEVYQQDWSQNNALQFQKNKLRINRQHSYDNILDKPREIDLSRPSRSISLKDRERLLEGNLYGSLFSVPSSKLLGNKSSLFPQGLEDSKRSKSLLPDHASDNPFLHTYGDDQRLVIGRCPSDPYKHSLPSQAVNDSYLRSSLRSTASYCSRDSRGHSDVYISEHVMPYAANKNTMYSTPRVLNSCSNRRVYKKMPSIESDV
Source text: (§1) Ovaries removed from sexually mature Xenopus laevis frogs were bluntly dissected to remove surrounding connective tissue and then digested with 0.2% type I collagenase in an oocyte Ringer's solution. Once free from thecal cells and connective tissue, individual oocytes were rinsed, sorted, and stored in a modified Barth's solution (R. Brosnan et al., Anesth. Analg. 103, (2006): 86; L. Yang, P. S. Milutinovic, R. J. Brosnan, E. I. Eger 2nd, & J. M. Sonner, Anesth. Analg. 105, (2007): 393; R. J. Brosnan, F. B. Fukushima, & T. L. Pham, Anaesth. Analg. 44, (2017): 577; A. Cenani, R. J. Brosnan, & H. K. Knych, Pharmacology 103, (2019): 10).
(§2) Heteromeric GABAA receptors were expressed in oocytes by blind intranuclear injection of 1 ng DNA encoding the human al (GABRA1) and rat B2 (GABRB2) subunits in a 1:1 ratio. NMDA receptors were expressed by intracytoplasmic injection of 5 ng RNA encoding rat NR1 (GRIN1) and rat NR2a (GRIN2A) subunits in a 1:1 ratio. Nax 1.2 channels were expressed by injection of 5 ng RNA encoding the human SCN2A gene.
Studies of NMDA receptors were carried out using equipment identical to that described for GABAA receptors. Transmembrane potential was clamped at −80 mV, and oocytes were perfused with a barium-containing FR solution (Ba-FR) which substituted equimolar BaCl2 for calcium salts and contained 0.1 mM EGTA as a calcium chelator. After 5 min, the perfusate was changed for 30 s to barium FR containing 0.1 mM glutamate plus 0.01 mM glycine (Ba-FREG) as receptor agonists which produce an NMDA receptor current greater than 99% of the maximal response. Next, Ba-FR containing the study drug was perfused for 5 min and then switched to Ba-FREG containing the same test article for 30 s. The drug was then washed out with a 5-min perfusion of Ba-FR followed by a 30-s exposure to Ba-FREG to confirm post-drug currents had returned to within 10% of pre-drug values.
(§3) The change in whole cell peak current before and during agonist exposure (for GABAA and NMDA receptors) or before and during the voltage step clamp (for Nav1.2 channels) was measured in the tracings immediately before and during drug exposure. Percent change in current was calculated as follows:
(§4) [formula] • where IB is the baseline pre-drug current peak and ID is the drug current peak. For each drug and ion channel, data were fit to a Hill equation using nonlinear regression with sequential quadratic programming and bootstrap estimates of parameter standard errors (SPSS, v. 27; IBM, Armonk, NY, USA). In the model, maximum drug inhibition (Imax) was constrained to not be less than −100%. Initial parameter estimates were seeded with values based on visual inspection of respective dose-response curves in order to facilitate model convergence.

[2] = biological target: T2, Nav1.2 channels (human SCN2A) (Homo sapiens, UniProt Q99250); assay: Two-electrode voltage clamp of Nav1.2 channels expressed in Xenopus oocytes; type: cell-based; details: for inhibition of Nav1.2 channels: at the mean plasma concentration during IV infusion anesthesia in rats; for Hill coefficient, Nav1.2 channel inhibition: dose-response model; for effect on Nav1.2 channel currents: dose-response, oocytes
T2 construct: expressed in transfected cells; host or cells: Xenopus laevis oocytes (RNA injection)
T2 sequence (Q99250 whole entry, the tested form may be a part): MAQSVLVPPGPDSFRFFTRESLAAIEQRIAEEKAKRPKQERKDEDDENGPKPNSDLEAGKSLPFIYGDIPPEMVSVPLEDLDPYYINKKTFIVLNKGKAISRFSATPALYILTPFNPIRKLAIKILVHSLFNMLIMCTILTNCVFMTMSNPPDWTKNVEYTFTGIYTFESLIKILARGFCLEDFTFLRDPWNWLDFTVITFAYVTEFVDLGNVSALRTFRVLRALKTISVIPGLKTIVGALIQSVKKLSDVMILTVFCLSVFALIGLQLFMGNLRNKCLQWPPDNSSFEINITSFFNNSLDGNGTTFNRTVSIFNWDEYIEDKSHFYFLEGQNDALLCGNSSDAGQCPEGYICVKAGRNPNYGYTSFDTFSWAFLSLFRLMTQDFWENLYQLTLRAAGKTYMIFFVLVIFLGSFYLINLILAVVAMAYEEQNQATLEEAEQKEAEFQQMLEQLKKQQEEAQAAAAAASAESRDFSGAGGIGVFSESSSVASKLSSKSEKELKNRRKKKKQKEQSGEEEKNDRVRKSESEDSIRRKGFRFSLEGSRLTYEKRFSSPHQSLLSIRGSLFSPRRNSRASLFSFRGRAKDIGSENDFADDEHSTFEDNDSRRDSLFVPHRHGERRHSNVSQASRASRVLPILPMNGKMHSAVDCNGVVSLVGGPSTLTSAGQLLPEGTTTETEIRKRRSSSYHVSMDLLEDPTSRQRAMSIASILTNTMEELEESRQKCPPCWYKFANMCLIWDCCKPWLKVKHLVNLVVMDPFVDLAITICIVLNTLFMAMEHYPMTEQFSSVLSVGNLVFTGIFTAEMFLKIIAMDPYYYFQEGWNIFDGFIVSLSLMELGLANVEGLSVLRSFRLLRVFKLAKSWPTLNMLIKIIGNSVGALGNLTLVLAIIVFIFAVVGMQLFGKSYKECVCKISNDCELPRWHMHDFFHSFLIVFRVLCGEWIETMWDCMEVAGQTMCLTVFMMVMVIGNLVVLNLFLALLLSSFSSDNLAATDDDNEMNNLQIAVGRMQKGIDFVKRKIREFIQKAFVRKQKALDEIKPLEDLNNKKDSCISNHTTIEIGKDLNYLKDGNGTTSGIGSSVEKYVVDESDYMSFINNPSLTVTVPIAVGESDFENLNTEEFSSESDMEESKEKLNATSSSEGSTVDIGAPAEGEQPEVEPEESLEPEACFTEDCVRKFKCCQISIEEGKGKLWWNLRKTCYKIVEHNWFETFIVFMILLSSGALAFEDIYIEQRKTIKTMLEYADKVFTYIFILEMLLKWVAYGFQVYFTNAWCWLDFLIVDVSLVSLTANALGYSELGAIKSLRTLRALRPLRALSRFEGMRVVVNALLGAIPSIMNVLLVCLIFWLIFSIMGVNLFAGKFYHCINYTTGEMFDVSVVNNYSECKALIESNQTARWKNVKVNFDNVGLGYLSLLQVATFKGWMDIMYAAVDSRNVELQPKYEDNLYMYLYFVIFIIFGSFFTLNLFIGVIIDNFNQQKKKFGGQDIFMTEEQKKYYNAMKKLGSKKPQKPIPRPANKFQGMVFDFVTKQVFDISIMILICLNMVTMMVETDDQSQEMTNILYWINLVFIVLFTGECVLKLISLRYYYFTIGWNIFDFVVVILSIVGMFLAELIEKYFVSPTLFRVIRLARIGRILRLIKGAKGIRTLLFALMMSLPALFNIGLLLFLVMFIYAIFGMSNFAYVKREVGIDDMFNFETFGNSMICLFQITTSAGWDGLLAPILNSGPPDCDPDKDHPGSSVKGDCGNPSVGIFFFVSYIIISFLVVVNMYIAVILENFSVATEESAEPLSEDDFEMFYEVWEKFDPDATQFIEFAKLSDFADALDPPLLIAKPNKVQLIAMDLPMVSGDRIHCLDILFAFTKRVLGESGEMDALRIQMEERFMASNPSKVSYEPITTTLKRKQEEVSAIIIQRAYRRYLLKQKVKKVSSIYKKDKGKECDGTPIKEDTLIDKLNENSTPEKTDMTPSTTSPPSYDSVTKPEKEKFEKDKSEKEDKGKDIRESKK
Source text: as §1, §2
Studies of the Nav1.2 channels were carried out Using the same equipment as above, oocytes were perfused with FR and clamped at −80 mV transmembrane potential. Every 2 min, a 6-s step potential to 0 mV was applied to open the channel; this was repeated until baseline responses stabilized. Next, FR containing the test drug was perfused for 2 min followed by another 6-s step voltage change to 0 mV. Finally, FR was perfused for 5 min to wash out the drug, and another 6-s step clamp to 0 mV was applied to confirm that post-drug currents had returned to within 10% of pre-drug values.
as §3, §4

Sprague Dawley rats [3] = assay: Pilot study, single IV bolus injection, righting reflex and tail clamp response; details: for time to return of righting reflex: methyl salicylate: the 2 surviving rats
Description: Solutions of 10% (v/v) L-carvone or methyl salicylate were prepared sterilely in 20% […]® (Fresenius Kabi, Lake Zurich, IL, USA). Lateral tail vein catheters were placed in twenty-one 69-day-old, male, Sprague Dawley rats weighing 291±17 (mean±SD) grams. Each rat received a single intravenous bolus injection of L-carvone solution (0.2 or 0.4 mL), methyl salicylate solution (0.1, 0.15, 0.2, or 0.4 mL), or a 1:1 mixture of the L-carvone and methyl salicylate solutions over 15 s. Because L-carvone density is 0.9673 g/cm^3 at 25° C., 0.2 mL and 0.4 mL of solution contained 19 mg and 39 mg of L-carvone, respectively (E. E. Royals & S. E. Horne, J. Am. Chem. Soc. 73, (1951): 5850).
Spontaneous motor activity and loss-of-righting reflex was assessed at 5- to 10-s intervals, and nociception response to an alligator clamp applied to the tail was tested if the righting reflex was absent. […] Animals were weighed 24 and 48 h after the study and then euthanized for gross pathology examination.

Sprague Dawley rats [4] = assay: Another experiment: IV doses of 10% (v/v) solutions in […]; type: in vivo, rat
Source text: In another experiment, a 10% (v/v) solution of methyl salicylate in […]®, and a 10% (v/v) solution of L-carvone in […]® were each tested in Sprague Dawley rats that each weighed approximately 300 g.

[5] = 0.2 mL IV bolus of 10% emulsion
[6] = Sprague Dawley, rat, in vivo, iv

Compound: COC(=O)c1ccccc1O [methyl salicylate]
- inhibition of NMDA receptors [1]: 53%
- Hill coefficient, NMDA receptor inhibition [1]: ~1
- effect on NMDA receptor currents [1]: dose-dependently inhibited
- inhibition of Nav1.2 channels [2]: 78%
- greater potency for Nav1.2 channels than for NMDA receptors ([2]; comparison of IC50, FIG. 4): 50%
- Hill coefficient, Nav1.2 channel inhibition [2]: greater than 1
- effect on Nav1.2 channel currents [2]: dose-dependently inhibited
- time to loss-of-righting reflex (Sprague Dawley rats [3]; 0.1 mL IV bolus of 10% emulsion in 20% INTRALIPID, single rat): 33 s
- general anesthesia (immobility in response to a tail clamp) (Sprague Dawley rats [3]; 0.1 mL IV bolus, single rat): never resulted in general anesthesia
- time to return-of-righting reflex (Sprague Dawley rats [3]; 0.1 mL IV bolus, single rat): 60 s
- time to anesthesia (Sprague Dawley rats [3]; 0.15 mL IV bolus, N=4 rats): 39 ± 2 s
- time to loss-of-righting (Sprague Dawley rats [3]; 0.15 mL IV bolus, N=4 rats): 35 ± 5 s
- time to normal ambulation without ataxia (Sprague Dawley rats [3]; 0.15 mL IV bolus, N=4 rats): 76 ± 10 s
- time to return from anesthesia (tail clamp response) after drug injection (Sprague Dawley rats [3]; 0.15 mL IV bolus, N=4 rats): 64 ± 8 s
- time to return of righting after drug injection (Sprague Dawley rats [3]; 0.15 mL IV bolus, N=4 rats): 53 ± 3 s
- time to walking and active / ambulating normally (Sprague Dawley rats [3]; 0.2 mL IV bolus): 110 s
- time to loss of tail clamp response (general anesthesia) (Sprague Dawley rats [3]; [5]): 37 ± 13 s
- time to loss-of-righting reflex (Sprague Dawley rats [3]; [5]): 35 ± 10 s
- time to return of righting reflex (Sprague Dawley rats [3]; 0.2 mL IV bolus): 58 s
- time to regain tail clamp response (Sprague Dawley rats [3]; 0.2 mL IV bolus, the 2 surviving rats): 48 s
- time to unconsciousness (Sprague Dawley rats [3]; 0.4 mL IV bolus): 20 ± 5 s
- body weight for the next two days, relative to baseline values (Sprague Dawley rats [3]; rat, in vivo): 97-98%
- gross pathology / necropsy findings (Sprague Dawley rats [3]; rat, in vivo): no gross abnormalities
- duration of loss of righting reflex (Sprague Dawley rats [4]; 0.2 mL IV): 30 s
- time to ambulatory after return of righting (Sprague Dawley rats [4]; 0.2 mL IV): 40 s
- time to loss of righting reflex (Sprague Dawley rats [4]; 0.2 mL IV): ≤ 25 s
- time to loss of righting (Sprague Dawley rats [4]; 0.4 mL IV): 15 s
- time from apnea to confirmed cardiac arrest (Sprague Dawley rats [4]; [6]): less than 1 minutes
- time from loss of righting to apnea (Sprague Dawley rats [4]; [6]): 5 s
- gross necropsy performed 2 days later (Sprague Dawley rats [4]; rat, in vivo, iv): No evidence of hepatic, renal, cardiac, or pulmonary injury

Compound: L-carvone
- NMDA receptor current at highest concentration ([1]; 10 mM drug): near or complete loss of channel currents
- greater inhibition of NMDA receptors and Nav1.2 channels than at the methyl salicylate plasma concentrations ([1]; at L-carvone plasma concentrations during anesthesia, NMDA and Nav1.2): 15-30%
- inhibition of NMDA receptors [1]: 71%
- Hill coefficient, NMDA receptor inhibition [1]: ~1
- effect on NMDA receptor currents [1]: dose-dependent inhibition
- Nav1.2 channel current at highest concentration ([2]; 10 mM drug): near or complete loss of channel currents
- inhibition of Nav1.2 channels [2]: 90%
- Hill coefficient, Nav1.2 channel inhibition [2]: ~1
- effect on Nav1.2 channel currents [2]: dose-dependent inhibition
- body weight over the next 2 days, deviation from baseline (Sprague Dawley rats [3]; 0.2 mL IV bolus): 1.9±1.4%
- time to walking and active / ambulating normally (Sprague Dawley rats [3]; 0.2 mL IV bolus): 60 ± 13 s
- time to loss of tail clamp response (general anesthesia) (Sprague Dawley rats [3]; [5]): 54 ± 11 s
- time to loss-of-righting reflex (Sprague Dawley rats [3]; [5]): 40 ± 6 s
- behavioural sign before loss-of-righting reflex (Sprague Dawley rats [3]; 0.2 mL IV bolus, N=4 rats): transient excitement
- duration of transiently decreased respiratory rate (Sprague Dawley rats [3]; 0.2 mL IV bolus, N=4 rats): approximately 10 s
- duration of whole-body muscle hypertonia (Sprague Dawley rats [3]; 0.2 mL IV bolus, half of the rats): 15 s
- time to return of righting reflex (Sprague Dawley rats [3]; 0.2 mL IV bolus): 58 ± 14 s
- time to cardiopulmonary arrest (Sprague Dawley rats [3]; 0.4 mL IV bolus): 35 ± 18 s
- time to unconsciousness (Sprague Dawley rats [3]; 0.4 mL IV bolus): 20 ± 4 s
- gross pathology / necropsy findings (Sprague Dawley rats [3]; recovered animals (sublethal doses), 48 h after drug administration): no gross pathology findings
- duration of general anesthesia effects (Sprague Dawley rats [4]; 0.2 mL IV): 1 min
- gross necropsy performed 2 days later (Sprague Dawley rats [4]; 0.2 mL IV): No evidence of hepatic, renal, cardiac, or pulmonary injury
- time after administration to awake and ambulatory (Sprague Dawley rats [4]; 0.2 mL IV): ≤ 3 min
- time to general anesthesia (loss of righting reflex and tail clamp response) (Sprague Dawley rats [4]; 0.2 mL IV, approx. 300 g rats): ≤ 30 s
- apnea after onset of anesthesia (Sprague Dawley rats [4]; 0.4 mL IV): almost immediately
- time from apnea to confirmed cardiac arrest (Sprague Dawley rats [4]; 0.4 mL IV): 2 min
- time to anesthesia (Sprague Dawley rats [4]; 0.4 mL IV): ≤ 45 s
